Tested on: OVCAR-8 CPR Luc cells
Experiment: cisplatin dose response, cell viability by MTS assay
Assay type: cell-based, human
Conditions: non-linear regression, FIG. 1
Description: Cells were treated with increasing doses of cisplatin and cell viability was measured using the MTS assay. IC50 values were calculated using non-linear regression analysis in GraphPad Prism software.
Next, we confirmed that these cells retained their inherent response to cisplatin. […] To determine if luciferase activity could be visualized in vitro we plated the OVCAR-8 CPR Luc cells in 2-dimensional (2D) adherent and suspended three-dimensional (3D) spheroid conditions.

SMILES: N.N.[Cl][Pt][Cl] [cisplatin]
- IC50 of OVCAR-8 CPR Luc cells to cisplatin relative to cisplatin-sensitive cells (OVCAR-8 Luc): twice

From patent publication US20240424146A1, “DRUG SCREENING METHOD AND MODEL FOR MONITORING PLATINUM-RESISTANT OVARIAN CANCER TUMOR GROWTH AND METASTASES” (THE BOARD OF REGENTS OF THE UNIVERSITY OF OKLAHOMA, priority 2023, published 2024)
